Measured values published in patent US20090042820A1, “Tubulin Binding Anti Cancer Agents And Prodrugs Thereof” (Threshold Pharmaceuticals, Inc., priority 2004, published 2009).
Like-named read-outs stand apart in the source and are kept apart here.

Tested on: H460 cells
Experiment: Alamar Blue antiproliferation assay, H460 cell line
Assay type: cell-based, human
Protocol: To determine the effect of the compounds of the present invention on cell proliferation, the antiproliferative activity of these compounds was tested in a multi-well Alamar Blue based assay (at 2 h and 3 days). Cell growth in the presence and absence of the test compound as tabulated in Table 1 was compared, as measured by a fluorescence plate reader at excitation 550 nm and emission 590 nm (see Biosource International Inc., Tech Application Notes, Use of Alamar Blue in the measurement of Cell Viability and Toxicity, Determining IC50). H460 cells (ATCC HTB-177 ([…]), 4,000 cells/well/200 μl) and LNCap cells (ATCC CRL-1740, 6,000 cells/well/200 μl) were seeded in a 96 well plate in RPMI medium (Invitrogen Corporation, Carlsbad, Calif.). After 24 hours, these plates were divided into 3 groups—Control group, 2 h treatment group and 3 day treatment group.
In the 2 h treatment group, after 2 h the cells were rinsed to remove the test compound and incubated for 3 days, followed by staining with AlamarBlue. The cells in the 3-day treatment group were incubated for 3 days, followed by staining with AlamarBlue. In the Control group, AlamarBlue was added to the plate at (i) day 0 and (ii) day 3 and measured to establish the control reading. In all the groups, the capacity of the cells to proliferate was measured 6 hours after addition of AlamarBlue by a fluorescence plate reader at excitation 550 nm and emission 590 nm.

[1] = Homo sapiens, NCI-H460, 2 h treatment, then 3 days incubation, read-out: GI50 (nM) 2 Hour
[2] = Homo sapiens, NCI-H460, 72 h, 3 day treatment, read-out: GI50 (nM) 3 Days
[3] = Homo sapiens, NCI-H460, 2 h treatment, then 3 days incubation, read-out: GI90 (nM) 2 Hour
[4] = Homo sapiens, NCI-H460, 72 h, 3 day treatment, read-out: GI90 (nM) 3 Day

| Structure (SMILES) | GI50 [1] | GI50 [2] | IC90 [3] | IC90 [4] | GI50 (3 day treatment, read-out: GI50 (nM) 3 Days) |
| --- | --- | --- | --- | --- | --- |
| COc1ccc2c(C(=O)c3cc(OC)c(OC)c(OC)c3)nn(C(=O)Cc3ccc(OCc4ccccc4)cc3)c2c1 [Compound 34] | > 10000 nM | 126 nM | – | – | – |
| COc1ccc2c(C(=O)c3cc(OC)c(OC)c(OC)c3)nn(S(=O)(=O)c3ccc([N+](=O)[O-])cc3)c2c1 [Compound 23] | 630 nM | 100 nM | – | – | – |
| C#Cc1c(OC)ccc2c(C(=O)c3cc(OC)c(OC)c(OC)c3)nn(CC(=O)O)c12 [Compound 74] | – | > 1000 nM | – | – | – |
| COc1cc(C(=O)c2n[nH]c3c(C(=O)O)c(OC)ccc23)cc(OC)c1OC [Compound 59] | > 1000 nM | 794 nM | – | – | – |
| COc1ccc2c(C(=O)c3cc(OC)c(OC)c(OC)c3)nn(P(=O)(OCc3ccccc3)OCc3ccccc3)c2c1 [Compound 27] | > 10000 nM | 251 nM | – | – | – |
| COc1cc(C(=O)c2n[nH]c3c(C#CCN)c(OC)ccc23)cc(OC)c1OC [Compound 53] | 630 nM | 158 nM | – | – | – |
| COc1ccc2c(C(=O)c3cc(OC)c(OC)c(OC)c3)nn(S(=O)(=O)c3ccc(O)cc3)c2c1 [Compound 29] | > 10000 nM | 630 nM | – | – | – |
| COc1ccc2c(C(=O)c3cc(OC)c(OC)c(OC)c3)n(CO)nc2c1 [Compound 81] | – | > 1000 nM | – | – | – |
| COc1ccc2c(/C(=N/O)c3cc(OC)c(OC)c(OC)c3)n[nH]c2c1 [Compound 11] | > 1000 nM | 631 nM | > 1000 nM | > 1000 nM | – |
| COc1cc(C(=O)c2n[nH]c3ccc(F)cc23)cc(OC)c1OC [Compound 43] | > 10000 nM | > 10000 nM | > 1000 nM | > 1000 nM | – |
| COc1cc(C(=O)c2n[nH]c3c(C#CC=O)c(OC)ccc23)cc(OC)c1OC [Compound 76] | – | 79.4 nM | – | – | – |
| COc1ccc2c(c1)N=N/C2=C/c1cc(OC)c(OC)c(OC)c1 [Compound 19] | > 10000 nM | > 1000 nM | > 1000 nM | > 1000 nM | – |
| COc1ccc2c(C(=O)c3cc(OC)c(OC)c(OC)c3)nn(C)c2c1 [Compound 12] | > 1000 nM | > 1000 nM | > 1000 nM | > 1000 nM | – |
| COc1cc2[nH]nc(C(=O)c3cc(OC)c(OC)c(OC)c3)c2cc1OC [Compound 77] | – | > 1000 nM | – | – | – |
| COc1cc(C(=O)c2n[nH]c3c(C#CC(C)(C)O)c(OC)ccc23)cc(OC)c1OC [Compound 36] | > 10000 nM | 63 nM | – | – | – |
| COc1cc(C(=O)c2n[nH]c3c(I)c(OC)ccc23)cc(OC)c1OC [Compound 22] | > 10000 nM | 40 nM | – | – | – |
| COc1ccc2c(C(=O)c3cc(OC)c(OC)c(OC)c3N)n[nH]c2c1 [Compound 45] | – | 158 nM | – | – | – |
| COc1cc(C(=O)c2n[nH]c3c(C#Cc4cccc(O)c4)c(OC)ccc23)cc(OC)c1OC [Compound 69] | – | 1000 nM | – | – | – |
| COc1ccc2c(C(=O)c3cc(OC)c(OC)c(OC)c3)n(C)nc2c1 [Compound 13] | > 1000 nM | > 1000 nM | > 1000 nM | > 1000 nM | – |
| COc1ccc2c(C(=O)c3cc(OC)c(OC)c(OC)c3)nn(CC(=O)O)c2c1 [Compound 62] | > 1000 nM | 630 nM | – | – | – |
| COc1cc(C(=O)c2n[nH]c3c(C#CCNC(=O)C(F)(F)F)c(OC)ccc23)cc(OC)c1OC [Compound 52] | > 1000 nM | 100 nM | – | – | – |
| CCC(=O)n1nc(C(=O)c2cc(OC)c(OC)c(OC)c2)c2ccc(OC)cc21 [Compound 50] | > 10000 nM | 20 nM | – | – | – |
| COc1ccc2c(C(=O)c3cc(OC)c(OC)c(OC)c3)n[nH]c2c1 [Compound 9] | > 1000 nM | 100 nM | > 1000 nM | 316 nM | – |

| Structure (SMILES) | GI50 [1] | GI50 [2] | IC90 [3] | IC90 [4] | GI50 (3 day treatment, read-out: GI50 (nM) 3 Days) |
| --- | --- | --- | --- | --- | --- |
| COc1cc(C(=O)c2n[nH]c3c(CCCCO)c(OC)ccc23)cc(OC)c1OC [Compound 61] | > 1000 nM | > 1000 nM | – | – | – |
| COc1cc(C(=O)c2nn(Cc3ncc([N+](=O)[O-])n3C)c3c(Br)c(OC)ccc23)cc(OC)c1OC [Compound 38] | > 10000 nM | 631 nM | – | – | – |
| COc1cc(C(=O)c2n[nH]c3c(S(=O)(=O)c4ccc(OCc5ccccc5)cc4)c(OC)ccc23)cc(OC)c1OC [Compound 31] | > 10000 nM | > 10000 nM | – | – | – |
| C#Cc1c(OC)ccc2c(C(=O)c3cc(OC)c(OC)c(OC)c3)nn(CC(N)=O)c12 [Compound 73] | – | 630 nM | – | – | – |
| C#Cc1c(OC)ccc2c(C(=O)c3cc(OC)c(OC)c(OC)c3)nn([C@@H]3OC(CO)[C@@H](O)[C@H](O)C3O)c12 (stereo partly drawn) [Compound 80] | – | > 1000 nM | – | – | – |
| COc1ccc2c3n(nc2c1)Cc1c(cc(OC)c(OC)c1OC)C3=O [Compound 32] | > 10000 nM | > 10000 nM | – | – | – |
| COc1ccc2c(C(=O)c3cc(OC)c(OC)c(OC)c3)nn(S(=O)(=O)c3cccc4ccccc34)c2c1 [Compound 25] | > 10000 nM | 630 nM | – | – | – |
| C#Cc1c(OC)ccc2c(C(=O)c3cc(OC)c(OC)c(OC)c3)nn(C(=O)OCc3ccc([N+](=O)[O-])o3)c12 [Compound 75] | – | > 1000 nM | – | – | – |
| COc1cc(C(=O)c2n[nH]c3c(Cl)c(OC)ccc23)cc(OC)c1OC [Compound 21] | > 10000 nM | 40 nM | – | – | – |
| COc1ccc2c(C(=O)c3cc(OC)c(OC)c(OC)c3)nn(S(=O)(=O)c3ccc(N)cc3)c2c1 [Compound 24] | 10000 nM | 501 nM | – | – | – |
| COc1ccc2c(C(=O)c3cc(OC)c(OC)c(OC)c3Br)nn(S(=O)(=O)c3ccc(C)cc3)c2c1 [Compound 48] | – | 630 nM | – | – | – |
| COc1ccc2c(/C(=N/N)c3cc(OC)c(OC)c(OC)c3)n[nH]c2c1 [Compound 10] | > 1000 nM | 398 nM | > 1000 nM | 1000 nM | – |
| COc1ccc2c(C(=O)c3cc(OC)c(OC)c(OC)c3)nn(CO)c2c1 [Compound 56] | > 10000 nM | 50.1 nM | – | – | – |
| COc1ccc2[nH]nc(C(=O)c3cc(OC)c(OC)c(OC)c3)c2c1 [Compound 42] | > 1000 nM | > 1000 nM | > 1000 nM | > 1000 nM | – |
| COc1ccc2c(C(=O)c3cc(OC)c(OC)c(OC)c3)nn(P(=O)(OC)OC)c2c1 [Compound 49] | – | 15.8 nM | – | – | – |
| COc1cc(C(=O)c2n[nH]c3c(C#C[C@@H](C)O)c(OC)ccc23)cc(OC)c1OC [Compound 71] | – | – | – | – | 12.5 nM |
| COc1ccc2c(C(=O)c3cc(OC)c(OC)c(OC)c3)nn(S(=O)(=O)Cc3ccc([N+](=O)[O-])cc3)c2c1 [Compound 33] | > 10000 nM | 1000 nM | – | – | – |
| COc1ccc2c(/C(=N/NC(C)=O)c3cc(OC)c(OC)c(OC)c3)n[nH]c2c1 [Compound 44] | > 5000 nM | 1580 nM | > 5000 nM | > 5000 nM | – |
| COc1ccc2c(C(=O)c3cc(OC)c(OC)c(OC)c3)n(Cc3ccccc3)nc2c1 [Compound 17] | > 1000 nM | > 1000 nM | > 1000 nM | > 1000 nM | – |
| COc1cc(C(=O)c2n[nH]c3c(CCC(C)(C)O)c(OC)ccc23)cc(OC)c1OC [Compound 65] | > 1000 nM | > 1000 nM | – | – | – |
| COc1ccc2c(C(=O)c3cc(OC)c(OC)c(OC)c3)nn(S(=O)(=O)c3ccc(C)cc3)c2c1 [Compound 47] | – | 25 nM | – | – | – |
| COc1ccc2c(C(=O)c3cc(OC)c(OC)c(OC)c3)nn(S(=O)(=O)c3ccc4ccccc4c3)c2c1 [Compound 26] | > 10000 nM | 630 nM | – | – | – |
| COc1ccc2c(C(=O)c3cc(OC)c(OC)c(OC)c3)nn(C(=O)c3ccccc3)c2c1 [Compound 20] | 630 nM | 100 nM | – | – | – |
